Reference: patent US8188127B2, “Microbicidal composition” (Rohm and Haas Company, priority 2007, dated 2012)
Where “and” joins values, the source holds several entries; their conditions need not be identical. Identical values can stand only once.

What was measured:
Type in all cases: cell-based
A. niger ATCC # 16404 = experiment: Microtiter plate MIC / synergy test (Kull synergy index), mold, PDB medium; conditions: for Ca: MIC of first component (A) alone (QA) / Cb: MIC of MBIT alone (QB): PDB medium, 25° C.; for Ca: MIC of TCMTB alone: component alone; for Ca: ppm AI of first component (A) alone (MIC, QA) / Cb: ppm AI of MBIT alone (MIC, QB): A. niger
Description: (§1) One measure of synergism is the industrially accepted method described by Kull, F. C.; Eisman, P. C.; Sylwestrowicz, H. D. and Mayer, R. L., in Applied Microbiology 9:538-541 (1961), using the ratio determined by the formula: Qa/QA+Qb/QB=Synergy Index (“SI”) wherein: • QA=concentration of compound A (first component) in ppm, acting alone, which produced an end point (MIC of Compound A). • Qa=concentration of compound A in ppm, in the mixture, which produced an end point. • QB=concentration of compound B (second component) in ppm, acting alone, which produced an end point (MIC of Compound B). • Qb=concentration of compound B in ppm, in the mixture, which produced an end point.
(§2) When the sum of Qa/QA and Qb/QB is greater than one, antagonism is indicated. […] The lower the SI, the greater the synergy shown by that particular mixture. The minimum inhibitory concentration (MIC) of a microbicide is the lowest concentration tested under a specific set of conditions that prevents the growth of added microorganisms.
(§3) Synergy tests were conducted using standard microtiter plate assays with media designed for optimal growth of the test microorganism. Minimal salt medium supplemented with 0.2% glucose and 0.1% yeast extract (M9GY medium) was used for testing bacteria; Potato Dextrose Broth (PDB medium) was used for testing yeast and mold. In this method, a wide range of combinations of microbicides was tested by conducting high resolution MIC assays in the presence of various concentrations of MBIT. High resolution MICs were determined by adding varying amounts of microbicide to one column of a microtitre plate and doing subsequent […] dilutions using an automated liquid handling system to obtain a series of endpoints ranging from 2 ppm to 10,000 ppm active ingredient.
(§4) The synergy of the combinations of the present invention was determined against several microorganisms, as described in the Tables below. The bacteria were used at a concentration of about 5×10^6 bacteria per mL and the yeast and mold at 5×10^5 fungi per mL. These microorganisms are representative of natural contaminants in many consumer and industrial applications. […] (yeast and mold) or 30° C. (bacteria).
(§5) In each test, Second Component (B) was MBIT and the First Component (A) was the other commercial microbicide.

C. albicans ATCC # 10231 = experiment: Microtiter plate MIC / synergy test (Kull synergy index), yeast, PDB medium; conditions: for Ca: MIC of first component (A) alone (QA) / Cb: MIC of MBIT alone (QB): PDB medium, 25° C.; for Ca: MIC of TCMTB alone: component alone; for Ca: ppm AI of first component (A) alone (MIC, QA) / Cb: ppm AI of MBIT alone (MIC, QB): C. albicans
Description: as §1, §2, §3, §4, §5

[1] = tested on: Ps. aeruginosa ATCC # 9027; experiment: Microtiter plate MIC / synergy test (Kull synergy index), bacteria, M9GY medium; conditions: for Ca: ppm AI of first component (A) alone (MIC, QA) / Cb: ppm AI of MBIT alone (MIC, QB): Ps. aeruginosa
Method: as §2, §3
The bacteria were used at a concentration of about 5×10^6 bacteria per mL and the yeast and mold at 5×10^5 fungi per mL. These microorganisms are representative of natural contaminants in many consumer and industrial applications. […] (yeast and mold) or 30° C. (bacteria).
as §5

S. aureus ATCC # 6538 = experiment: as above; conditions: for Ca: MIC of first component (A) alone (QA) / Cb: MIC of MBIT alone (QB): M9GY medium, 30° C.; for Ca: ppm AI of first component (A) alone (MIC, QA) / Cb: ppm AI of MBIT alone (MIC, QB): S. aureus
Description: as §1, §2, §3, §4, §5

[2] = A. niger ATCC # 16404, contact time 3 days
[3] = A. niger ATCC # 16404, contact time 7 days
[4] = C. albicans ATCC # 10231, contact time 48 hrs
[5] = C. albicans ATCC # 10231, contact time 72 hrs
[6] = Ps. aeruginosa ATCC # 9027, contact time 48 hrs, M9GY medium, 30° C.
[7] = S. aureus ATCC # 6538, contact time 24 hrs
[8] = S. aureus ATCC # 6538, contact time 48 hrs

In the case of CCCCCCCC(=O)O [Caprylic acid], the “Ca: MIC of first component (A) alone (QA)” value (“Ca: MIC of first component” below) (A. niger ATCC # 16404; [2]) is reported as 650 ppm AI, the “Ca: MIC of first component” value (A. niger ATCC # 16404; [3]) is reported as 875 ppm AI and the “Ca: MIC of first component” value (C. albicans ATCC # 10231; [4]) is reported as 65 ppm AI. For the same compound, the “Ca: MIC of first component” value (C. albicans ATCC # 10231; [5]) was 87.5 ppm AI, the “Ca: MIC of first component” value [1, 6] was over 11000 ppm AI and the “Ca: MIC of first component” value (S. aureus ATCC # 6538; [7]) was 425 ppm AI. For the same compound, the “Ca: MIC of first component” value (S. aureus ATCC # 6538; [8]) was 425 ppm AI.

In the case of N#CSCSc1nc2ccccc2s1 [TCMTB], the “Ca: MIC of TCMTB alone” value (A. niger ATCC # 16404; [2]) is reported as 3 ppm AI, the “Ca: MIC of TCMTB alone” value (A. niger ATCC # 16404; [3]) is reported as 8.75 ppm AI and the “Ca: MIC of TCMTB alone” value (C. albicans ATCC # 10231; [4]) is reported as 4.25 ppm AI. The “Ca: MIC of TCMTB alone” value (C. albicans ATCC # 10231; [5]) was 5.25 ppm AI, the “Ca: MIC of TCMTB alone” value ([1]; Ps. aeruginosa ATCC # 9027, contact time 48 hrs, component alone) was 212.5 ppm AI and the “Ca: MIC of TCMTB alone” value (S. aureus ATCC # 6538; S. aureus ATCC # 6538, contact time 24 hrs, component alone) was 26.25 ppm AI.

O=C([O-])CNCO.[Na+] [SUTTOCIDE A, sodium hydroxymethylglycinate] was tested, and the “Ca: ppm AI of first component (A) alone (MIC, QA)” value (“Ca: ppm AI of first component” below) (A. niger ATCC # 16404; contact time 3 days) was 875 ppm AI, the “Ca: ppm AI of first component” value (A. niger ATCC # 16404; contact time 7 days) was 1100 ppm AI and the “Ca: ppm AI of first component” value (C. albicans ATCC # 10231; contact time 48 hrs) was 3000 ppm AI. For the same compound, the “Ca: ppm AI of first component” value (C. albicans ATCC # 10231; contact time 72 hrs) was 3000 ppm AI, the “Ca: ppm AI of first component” value ([1]; contact time 24 hrs) was 87.5 ppm AI and the “Ca: ppm AI of first component” value ([1]; contact time 48 hrs) was 110 ppm AI. For the same compound, the “Ca: ppm AI of first component” value (S. aureus ATCC # 6538; contact time 24 hrs) was 110 ppm AI and the “Ca: ppm AI of first component” value (S. aureus ATCC # 6538; contact time 48 hrs) was 110 ppm AI.

With Cn1sc2ccccc2c1=O [MBIT, N-methyl-1,2-benzisothiazolin-3-one] the “Cb: MIC of MBIT alone (QB)” value (A. niger ATCC # 16404; [2]) was 37.5 ppm AI and 75 ppm AI, the “Cb: MIC of MBIT alone” value (A. niger ATCC # 16404; A. niger ATCC # 16404, contact time 3 days, component alone (Table 8)) was 75 ppm AI and the “Cb: MIC of MBIT alone” value (A. niger ATCC # 16404; A. niger ATCC # 16404, contact time 3 days, component alone (Table 9)) was 37.5 ppm AI. For the same compound, the “Cb: MIC of MBIT alone” value (A. niger ATCC # 16404; A. niger ATCC # 16404, contact time 3 days, component alone (Table 10)) was 37.5 ppm AI, the “Cb: MIC of MBIT alone (QB)” value (A. niger ATCC # 16404; [3]) was 150 ppm AI and the “Cb: MIC of MBIT alone” value (A. niger ATCC # 16404; A. niger ATCC # 16404, contact time 7 days, component alone (Table 8)) was 150 ppm AI. The “Cb: MIC of MBIT alone” value (A. niger ATCC # 16404; A. niger ATCC # 16404, contact time 7 days, component alone (Table 9)) was 150 ppm AI, the “Cb: MIC of MBIT alone” value (A. niger ATCC # 16404; A. niger ATCC # 16404, contact time 7 days, component alone (Table 10)) was 150 ppm AI and the “Cb: ppm AI of MBIT alone (MIC, QB)” value (A. niger ATCC # 16404; contact time 3 days) was 37.5 ppm AI and 75 ppm AI. For the same compound, the “Cb: ppm AI of MBIT alone (MIC, QB)” value (A. niger ATCC # 16404; contact time 7 days) was 150 ppm AI, the “Cb: MIC of MBIT alone (QB)” value (C. albicans ATCC # 10231; [4]) was 30 ppm AI and the “Cb: MIC of MBIT alone” value (C. albicans ATCC # 10231; C. albicans ATCC # 10231, contact time 48 hrs, component alone (Table 8)) was 30 ppm AI. For the same compound, the “Cb: MIC of MBIT alone” value (C. albicans ATCC # 10231; C. albicans ATCC # 10231, contact time 48 hrs, component alone (Table 9)) was 30 ppm AI, the “Cb: MIC of MBIT alone” value (C. albicans ATCC # 10231; C. albicans ATCC # 10231, contact time 48 hrs, component alone (Table 10)) was 30 ppm AI and the “Cb: MIC of MBIT alone (QB)” value (C. albicans ATCC # 10231; [5]) was 60 ppm AI and 30 ppm AI. The “Cb: MIC of MBIT alone” value (C. albicans ATCC # 10231; C. albicans ATCC # 10231, contact time 72 hrs, component alone (Table 8)) was 30 ppm AI, the “Cb: MIC of MBIT alone” value (C. albicans ATCC # 10231; C. albicans ATCC # 10231, contact time 72 hrs, component alone (Table 9)) was 30 ppm AI and the “Cb: MIC of MBIT alone” value (C. albicans ATCC # 10231; C. albicans ATCC # 10231, contact time 72 hrs, component alone (Table 10)) was 60 ppm AI. For the same compound, the “Cb: ppm AI of MBIT alone (MIC, QB)” value (C. albicans ATCC # 10231; contact time 48 hrs) was 30 ppm AI, the “Cb: ppm AI of MBIT alone (MIC, QB)” value (C. albicans ATCC # 10231; contact time 72 hrs) was 30 ppm AI and the “Cb: MIC of MBIT alone (QB)” value ([1]; Ps. aeruginosa ATCC # 9027, contact time 24 hrs, M9GY medium, 30° C.) was 75 ppm AI. The “Cb: MIC of MBIT alone” value ([1]; Ps. aeruginosa ATCC # 9027, contact time 24 hrs, component alone (Table 8)) was 75 ppm AI, the “Cb: MIC of MBIT alone” value ([1]; Ps. aeruginosa ATCC # 9027, contact time 24 hrs, component alone (Table 9)) was 75 ppm AI and the “Cb: MIC of MBIT alone (QB)” value [1, 6] was 125 ppm AI. For the same compound, the “Cb: MIC of MBIT alone” value ([1]; Ps. aeruginosa ATCC # 9027, contact time 48 hrs, component alone (Table 8)) was 125 ppm AI, the “Cb: MIC of MBIT alone” value ([1]; Ps. aeruginosa ATCC # 9027, contact time 48 hrs, component alone (Table 9)) was 125 ppm AI and the “Cb: MIC of MBIT alone” value ([1]; Ps. aeruginosa ATCC # 9027, contact time 48 hrs, component alone (Table 10)) was 125 ppm AI. The “Cb: ppm AI of MBIT alone (MIC, QB)” value ([1]; contact time 24 hrs) was 75 ppm AI, the “Cb: ppm AI of MBIT alone (MIC, QB)” value ([1]; contact time 48 hrs) was 125 ppm AI and the “Cb: MIC of MBIT alone (QB)” value (S. aureus ATCC # 6538; [7]) was 15 ppm AI and 30 ppm AI. The “Cb: MIC of MBIT alone” value (S. aureus ATCC # 6538; S. aureus ATCC # 6538, contact time 24 hrs, component alone (Table 8)) was 30 ppm AI, the “Cb: MIC of MBIT alone” value (S. aureus ATCC # 6538; S. aureus ATCC # 6538, contact time 24 hrs, component alone (Table 9)) was 30 ppm AI and the “Cb: MIC of MBIT alone” value (S. aureus ATCC # 6538; S. aureus ATCC # 6538, contact time 24 hrs, component alone (Table 10)) was 15 ppm AI. The “Cb: MIC of MBIT alone (QB)” value (S. aureus ATCC # 6538; [8]) was 30 ppm AI, the “Cb: MIC of MBIT alone” value (S. aureus ATCC # 6538; S. aureus ATCC # 6538, contact time 48 hrs, component alone (Table 8)) was 30 ppm AI and the “Cb: MIC of MBIT alone” value (S. aureus ATCC # 6538; S. aureus ATCC # 6538, contact time 48 hrs, component alone (Table 9)) was 30 ppm AI. The “Cb: ppm AI of MBIT alone (MIC, QB)” value (S. aureus ATCC # 6538; contact time 24 hrs) was 15 ppm AI and 30 ppm AI and the “Cb: ppm AI of MBIT alone (MIC, QB)” value (S. aureus ATCC # 6538; contact time 48 hrs) was 30 ppm AI.
